Laboratory results: patent publication US20070275911A1, “Targeted Drug-Formaldehyde Conjugates and Methods of Making and Using the Same” (priority 2003, published 2007)
Read-outs that look alike come from different tables or passages of the source.

Assays:
MCF-7/Adr cells = assay: Uptake and release by flow cytometry; format: cell-based, human; details: for drug uptake (DOX fluorophore): 500 nM, 20, 40 and 60 min
Protocol: Uptake and release of DOX-TEG-TAM: The uptake of 500 nM DOX, DOXSF, and DOX-TEG-TAM following treatment for various times up to 1 h was assessed by flow cytometry. […] The release of drugs following a 500 nM treatment for 1 h was assessed at various times out to 6 h post-treatment. Resistant MCF-7/Adr cells were first assessed as they provide a means to evaluate the AEBS targeting hypothesis to explain the dramatic improvement in tumor cell growth inhibition observed for DOX-TEG-TAM relative to DOXSF and clinical DOX. […] In all three cases the drug fluorescence decreased dramatically up to 1 h post-treatment, as free drug was transported from the cell. […] The enhanced uptake and retention of DOX-TEG-TAM relative to DOX and DOXSF parallels the growth inhibition data of Example 4 and provides evidence in favor of the targeting hypothesis involving interaction with AEBS.
Uptake and release of DOX, DOXSF, and DOX-TEG-TAM: The uptake and release of DOX-TEG-TAM in breast cancer cells relative to DOX and untargeted DOXSF was performed as described with modifications. Breast cancer cells in log phase growth were dissociated with trypsin-EDTA, counted, resuspended in media at 1.5×10^5 cells/mL, and plated into six well plates (450,000 cells/well) and allowed to adhere overnight. The cells were treated with 0.5 μM DOX, DOXSF, or DOX-TEG-TAM for various amounts of time (20 min, 40 min, and 60 min). Drug treatment was accomplished by addition of 30 μL of 100× drug solution (50 μM) to 3 mL of media which was mixed and immediately added to the cells. For each time point, the media was removed, cells were trypsinized, and trypsinization was quenched with 3 mL phenol red-free RPMI 1640 media (no serum) at 4° C. Cells were pelleted by centrifugation at 300 g for 5 min at 10° C. The supernatant was decanted and the cells were re-suspended in 1 mL serum- and phenol red-free RPMI 1640 media and placed on ice.
For drug retention samples, the cells were treated for 1 h with 0.5 μM DOX, DOXSF, or DOX-TEG-TAM. Following drug treatment, the media was removed and replaced with 3 mL fresh, 37° C., full (containing serum and phenol red indicator) cell media and the cells were incubated for various times (0.5 h, 1 h, 3 h, and 6 h). Following the allotted release times, the cells were prepared as described above. […]
The extent of drug uptake and retention was measured by flow cytometry. Cells were analyzed with excitation at 488 nm (15 mW Ar ion laser), with emission monitored between 570 and 600 nm. Instrument settings were optimized for each cell line and held constant for all experiments; 10,000 cells were analyzed for anthracycline fluorescence. The data are presented as the mean fluorescence for each condition with the background, drug-free cell fluorescence subtracted.

[1] = test system: PC-3 prostate cancer cells; assay: Cytotoxicity, crystal violet colony assay (Example 1); format: cell-based; details: for IC50: PC-3, 4 h treatment, read-out: IC50 cancer cell growth inhibition
[2] = biological target: T1, ανβ3 integrin present on viable MDA-MB-435 cells (Homo sapiens, UniProt P05106+P06756); assay: Vitronectin cell adhesion (competition) assay; format: cell-based; details: MDA-MB-435 cell binding to vitronectin, 500 μM Mn2+; read-out: IC50 for inhibition of cell binding
T1 construct: endogenous in cells
Text: The data are presented as the mean fluorescence for each condition with the background, drug-free cell fluorescence subtracted.

MDA-MB-435 cells [3] = assay: Growth inhibition assay (Example 6); format: cell-based, human; details: read-out: IC50 for inhibition of cell growth (nM), treatment time
Protocol: […] Cells were quantified via measuring crystal violet staining or cellular metabolism of MTT. For every experiment, each condition was performed in hexuplicate; experiments were performed at least twice.
Cancer cell growth inhibition: acyclic-RGD-4C-DOXSF and cyclic-(N-Me-VRGDf-NH)-DOXSF were also assayed for their ability to inhibit growth of MDA-MB-435 cells relative to DOX and DOXSF. Cells treated in cell culture plates and non-treated (-control) cells were allowed to grow to near confluency, and then quantified via measuring crystal violet staining or cellular metabolism of MTT. […] Earlier control experiments established that the miniscule amounts of formaldehyde that would be released even from complete hydrolysis of the conjugate would contribute nothing to the observed growth inhibition. Conjugation of cytotoxic drugs to triggers and targeting groups often causes a drop in cytotoxicity.

MDA-MB-435 cells [4] = assay: Uptake of DOX, DOXSF and acyclic-RGD-4C-DOXSF by flow cytometry; format: cell-based, human; details: for RFU with 100 nM drug / RFU with 500 nM drug / RFU with 1000 nM drug: no additional Mn2+
Protocol: MDA-MB435 breast cancer cells in log phase growth were dissociated with trypsin-EDTA, counted, resuspended in media at 2×10^5 cells/mL, and plated into six-well plates (5.0×10^5 cells/well) and allowed to adhere overnight. Drug solutions of DOX, DOXSF, and ayclic-RGD-4C-DOXSF were prepared in DMSO with 1% acetic acid at 50 μM. Before treatment with drug, cell media was removed, cells were washed with HBSS (0.5 mL), and then fresh cell media, with or without 500 μM Mn^2+, was placed into the wells (2 mL). […] For each time point, the cell media was removed, cells were washed with HBSS, trypsinized, and trypsinization was quenched with 5 mL of cell media at 4° C. Cells were pelleted by centrifugation at 200 g for 5 min at 10° C. The supernatant was decanted, and the cells were resuspended in 5 mL of D-PBS at 4° C., repelleted, resuspended in 2 mL of D-PBS at 4° C., and placed on ice. […] The amount of drug uptake was measured by flow cytometry. Cells were analyzed with excitation at 488 nm (15 mW Ar ion laser), with emision monitored between 570 and 600 nm. Instrument settings were optimized for the cell line and held constant for all experiments; 10,000 cells were analyzed for each sample's anthracycline fluorescence. The data are presented as the mean fluorescence for each condition divided by the background, drug-free mean fluorescence.
Concentration of targeted drug relative to DOX and DOXSF in cells was determined from emission of the DOX fluorophore.

Compound | drug uptake (DOX fluorophore) (MCF-7/Adr cells) | drug retention (MCF-7/Adr cells; 6 h after 1 h treatment with 500 nM) | IC50 [1] [nM] | IC50 [2] [nM] | IC50 (MDA-MB-435 cells [3]; Homo sapiens, MDA-MB-435, 20 min, 20 min treatment) [nM] | IC50 (MDA-MB-435 cells [3]; Homo sapiens, MDA-MB-435, 1 h treatment) [nM] | IC50 (MDA-MB-435 cells [3]; Homo sapiens, MDA-MB-435, 4 h treatment) [nM] | RFU with 100 nM drug (MDA-MB-435 cells [4]; 30 min) [RFU] | RFU with 500 nM drug (MDA-MB-435 cells [4]; 30 min) [RFU] | RFU with 1000 nM drug (MDA-MB-435 cells [4]; 30 min) [RFU] | fold uptake more than acyclic-RGD-4C-DOXSF (MDA-MB-435 cells [4]; 1 h drug treatment) [fold] | RFU with 100 nM drug (MDA-MB-435 cells [4]; 4 h) [RFU] | RFU with 500 nM drug (MDA-MB-435 cells [4]; 4 h) [RFU] | RFU with 1000 nM drug (MDA-MB-435 cells [4]; 4 h) [RFU] | DOX/doxsaliform ([1]; PC-3, fold increase in cytotoxicity, 4 h drug treatment) | IC50 (MDA-MB-435 cells [3]; 4 h treatment) [nM] | fold uptake higher than acyclic-RGD-4C-DOXSF and DOX (MDA-MB-435 cells [4]; 4 h, 500 nM) [fold]
CC/C(=C(/c1ccc(O)cc1)c1ccc(OCCN(C)CCOCCOCCO/N=C/c2ccc(O)c(C(=O)NCN[C@H]3C[C@H](O[C@H]4C[C@](O)(C(=O)CO)Cc5c(O)c6c(c(O)c54)C(=O)c4c(OC)cccc4C6=O)O[C@@H](C)[C@H]3O)c2)cc1)c1ccccc1 [11c, E/Z-N-(2-Hydroxy-5-{[2-(2-{2-[(2-{4-[1-(4-hydroxy-phenyl)-2-phenyl-but-1-enyl]-phenoxy}-ethyl)-methyl-amino]-ethoxy}-ethoxy)-ethoxyimino]-methyl}-benzamide)-doxorubicin] | almost twice as much | maintained a higher level of drug retention relative to DOX and DOXSF | – | – | – | – | – | – | – | – | – | – | – | – | – | – | –
COc1cccc2c1C(=O)c1c(O)c3c(c(O)c1C2=O)C[C@@](O)(C(=O)CO)C[C@@H]3O[C@H]1C[C@H](N)[C@H](O)[C@H](C)O1 [doxorubicin, reference compound] | one relative fluorescent unit | – | 300 | > 10000 | 800 | 300 | 120 | 1.23 | 2.12 | 3.21 | 3 | 1.90 | 5.88 | 12.03 | – | – | –
COc1cccc2c1C(=O)c1c(O)c3c(c(O)c1C2=O)C[C@@](O)(C(=O)CO)C[C@@H]3O[C@H]1C[C@H](NCNC(=O)c2ccccc2O)[C@H](O)[C@H](C)O1 [doxsaliform, N-(2-Hydroxybenzamido-methyl)-doxorubicin] | one relative fluorescent unit | – | 80 | > 10000 | – | – | – | 1.88 | 5.55 | 9.23 | – | 3.23 | 13.25 | 24.51 | 4 | 50 | 2
